Here are results for 1 compound from US11484032B2, “Compositions for inhibition of insect sensing” (Vanderbilt University, priority 2011, dated 2022).

Experiment [1] deals with AgORco-expressing CpB/C neurons. The experiment in a line: Single sensillum recording, capitate peg sensilla, CpB/C neurons. To be noted: compound delivered via glass recording electrode. Type of experiment: in vivo, Anopheles gambiae. How it is done: Single sensillum recordings were performed on 4-7 day old, non-bloodfed Anopheles gambiae females maintained on 10% sucrose and a 12/12 light dark cycle. Legs, wings and antennae were removed from cold-anesthetized females that were then restrained on double-stick tape with thread. A glass reference electrode filled with Sensillar lymph ringers (SLR)(Xu, 2005) was placed in the eye and the recording electrode filled with DMSO or VUAA1 diluted in SLR was used to puncture sensilla at their base. Responses were recorded and digitized using a Syntech IDAC-4 and analyzed with AutoSpike software (Syntech). New glass recording pipettes were used for every recording. Data was sampled at 12 kHz.
The inventors next performed single unit, extracellular electrophysiological recordings on adult female An. gambiae to determine whether VUAA1 could activate AgORco-expressing odorant receptor neurons (ORNs) in vivo. ORNs, which express AgORco and a conventional OR are enclosed within the hair-like sensilla present on olfactory tissues. […] CpA is clearly distinguished from CpB/C by its large action potential amplitude. The action potential amplitudes of CpB and CpC are much smaller and in some preparations indistinguishable from each other; as a result, the spike activity of CpB and CpC neurons were binned for data analysis. […]

In experiment [2] the target is T1, AgORco (Anopheles gambiae, UniProt Q7QCC7).
T1 construct: expressed in transfected cells
T1 sequence (Q7QCC7 1-478): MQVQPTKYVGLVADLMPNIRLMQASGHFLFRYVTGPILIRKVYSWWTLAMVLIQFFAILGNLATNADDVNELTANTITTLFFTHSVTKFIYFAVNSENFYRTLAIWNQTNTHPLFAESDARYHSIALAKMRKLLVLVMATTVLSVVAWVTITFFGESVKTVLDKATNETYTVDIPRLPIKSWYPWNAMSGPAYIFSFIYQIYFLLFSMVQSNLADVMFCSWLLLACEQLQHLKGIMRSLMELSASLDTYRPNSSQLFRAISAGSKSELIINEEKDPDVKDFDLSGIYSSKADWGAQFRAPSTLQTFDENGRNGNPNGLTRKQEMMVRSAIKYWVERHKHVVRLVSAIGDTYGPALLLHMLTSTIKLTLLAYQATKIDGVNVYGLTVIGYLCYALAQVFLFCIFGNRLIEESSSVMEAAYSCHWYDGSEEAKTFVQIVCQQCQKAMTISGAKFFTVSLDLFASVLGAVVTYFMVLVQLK
Put plainly: Whole-cell patch clamp, HEK293 cells stably expressing AgORco alone. It is filed as cell-based. How it is done: Currents from OR-expressing HEK293 cells were amplified with an Axopatch 200b Amplifier (Axon Instruments) and digitized through a Digidata 1322A (Axon Instruments). Electrophysiological data was recorded and analyzed using pCLAMP 10 (Axon Instruments). Electrodes were fabricated from quartz tubing (Sutter Instruments) and pulled to 4-6 MiΩ for whole cell recording. Electrodes were filled with internal solution (120 mM KCl, 30 mM D-glucose, 10 mM HEPES, 2 mM MgCl2, 1.1 mM EGTA, and 0.1 CaCl2) (pH 7.35, 280 mOsm). External (bath) solution contained 130 mM NaCl, 34 mM D-glucose, 10 mM HEPES, 1.5 mM CaCl2), 1.3 mM KH2PO4, and 0.5 MgSO4 (pH 7.35, 300 mOsm). Compounds were diluted in external solution and locally perfused to the recording cell using Perfusion Pencil (Automate Scientific) and controlled by a ValveLink 8.2 controller (Automate Scientific). Whole cell recordings were sampled at 10 kHz and filtered at 5 kHz. Outside-out patches were obtained using 10-15MΩ electrodes pulled from standard glass capillaries (World Precision Instruments) and fire-polished with an MF-830 micro forge (Narishige). Single channel recordings were sampled at 20 kHz. Recordings were reduced to 1 kHz and low-pass filtered at 500 Hz for display and analysis using QuB (SUNY at Buffalo).
To test the hypothesis that VUAA1 directly agonized AgORco, whole-cell patch clamp responses were examined in AgORco+AgOR10 expressing cells as well as HEK293 cells stably expressing AgORco alone. […] The VUAA1-dependent currents in AgORco+AgOR10 cells resembled those resulting from application of benzaldehyde, an orthosteric agonist of AgOR10 (FIG. 3C) (Wang, 2010; Carey, 2010). […] To investigate the specificity of VUAA1 agonism, the inventors transiently transfected HEK cells with the AgORco orthologs of Drosophila melanogaster and Heliothis virescens, DmORco and HvOR2 respectively.
A general note: Patch clamp records ionic current or voltage across a cell membrane.

Experiment [3] deals with An. gambiae early 4th instar larvae. The experiment in a line: Larval mosquito movement assay (Daniovision-Ethovision). Type of experiment: in vivo, Anopheles gambiae. How it is done: Next, the agonist activity of the VUAA compound class was tested to establish the involvement of AgORs in mediating larval ortho and klinokinesis in response to a series of semiochemicals using larval-stage An. gambiae mosquitoes. Mosquito larvae are aquatic, thus compounds can be delivered to individual early 4th instar larvae regardless of volatility. The assay currently utilizes 6-well plates and the Daniovision-Ethovision platform (Noldus Inc.) to simultaneously record and analyze 6 larvae, thereby providing modest rates of throughput and a high degree of reproducibility. In these assays, larval movements are automatically quantified over 5-minute period and control larvae consistently move the same number of times in the presence or absence of 0.1% DMSO (p=0.80, n=31) (FIGS. 42-43). Furthermore, the effects of the widely-used synthetic insect repellent N, N-diethyl-meta-toluamide (DEET) was tested and DEET was also observed to increase larval movements at and above a threshold concentration of 5×10^−4M (p=0.013, n=27) (FIGS. 42-43).

Regarding `CCc1ccc(NC(=O)CSc2nnc(-c3cccnc3)n2CC)cc1` [VUAA1, 2-((4-ethyl-5-(pyridin-3-yl)-4H-1,2,4-triazol-3-yl)thio)-N-(4-ethylphenyl)acetamide], the “spike frequency of CpB/C neurons” value in experiment [1] was “increased the spike frequency of CpB/C neurons in a dose-dependent manner”. For the same compound, in experiment [2] (AgORco alone cells, holding potential −60 mV), the whole-cell current response result is listed as “concentration-dependent inward currents”. Further, the “reversal potential of agonist-induced current” value in experiment [2] (AgORco alone, mean s.e.m.) is reported as “+0.4±1.1 mV”. Also, in experiment [2] (−5.0 log M), the “whole-cell current response at −5.0 log M” value is “no response”. Moreover, the “larval movements at higher concentration” value in experiment [3] (5×10^−5M) is on record as “larval movements were observed to decrease”. Moreover, the “larval response in AgOrco siRNA-treated larvae” value in experiment [3] (AgOrco siRNAs injected 48 h before, vs buffer-injected control) is recorded as “no longer responsive”. For the same compound, the “increase over the response threshold of DEET” value in experiment [3] (in vivo) is 5 orders of magnitude. The “threshold concentration for increased larval movement” value in experiment [3] (movements over 5-minute period) was 5 nM.
